Measurements from EP1561465A2, “Methods of use of fluoroquinolone compounds against bacteria” (LG Life Sciences, Ltd., priority 1999, dated 2001).
In brackets after ≈: the same amount, converted by molar mass. Where two headings read alike, the source gives them in different places.

Columns and labels:
Type in all cases: cell-based
Haemophilus influenzae = experiment: MIC by NCCLS reference broth microdilution, 450 respiratory tract pathogens; conditions: Haemophilus influenzae; for MIC90: read-out: MIC90
E. faecalis [1] = experiment: Urinary bactericidal titers (UBT) and AUBTC of volunteers' urine; conditions: urine after gemifloxacin 320 mg or ofloxacin 400 mg
E. coli [2] = experiment: MIC and MBC by microdilution in Mueller-Hinton broth, uropathogens
Method: (§1) MICs and MBCs were determined by a microdilution method with Mueller-Hinton broth. An inoculum of 1.3-9.4 x 10^5 colony forming units (CFU) per ml was used.
(§2) Strains included a reference strain E. coli ATCC 25922, susceptible to nalidixic acid (Nal-S) and the following clinical isolates obtained from complicated UTI patients: E. coli (resistant to nalidixic acid), K. pneumoniae, P. mirabilis , P. aeruginosa, […] (3 strains) and Enterococcus faecalis (2 strains).

K. pneumoniae = experiment: as above
Method: as §1, §2

P. aeruginosa = experiment: as above
Method: as §1, §2

E. faecalis [3] = experiment: as above; conditions: Enterococcus faecalis
Method: as §1, §2

P. mirabilis = experiment: as above
Method: as §1, §2

E. coli [4] = experiment: microbe, parasite or virus in culture; conditions: for MIC50 / MIC: Escherichia coli
Proteus vulgaris = experiment: MIC by NCCLS broth microdilution, 1100 Japanese clinical isolates 1997-1998
Enterobacter aerogenes = experiment: as above; conditions: Enterobacter aerogenes (n=35)
[5] = E. faecalis Laboratory No. 55, inoculum 6.0 CFU 10^5/ml
[6] = E. faecalis Laboratory No. 60, inoculum 7.0 CFU 10^5/ml

`CO/N=C1\CN(c2nc3c(cc2F)c(=O)c(C(=O)O)cn3C2CC2)CC1CN` (racemic) [Gemifloxacin, (R,S)-7-(3-aminomethyl-4-methoxyiminopyrrolidin-1-yl)-1-cyclopropyl-6-fluoro-4-oxo-1,4-dihydro-1,8-naphthyridine-3-carboxylic acid] showed an MIC90 (Haemophilus influenzae; β-lactamase negative (n = 80)) of at most 0.0075 µg/mL, an MIC (Haemophilus influenzae; β-lactamase positive (n = 20)) of 0.0075 to 0.06 µg/mL (≈ 0.0193 to 0.154 µM) and an MIC50 (Haemophilus influenzae; β-lactamase positive (n = 20)) of at most 0.0075 µg/mL. The MIC90 (Haemophilus influenzae; β-lactamase positive (n = 20)) was 0.015 µg/mL (≈ 0.0385 µM), the “AUBTC (range)” value (E. faecalis [1]; E. faecalis (13) Laboratory No. 55) was 39 (0-102) and the “AUBTC (range)” value (E. faecalis [1]; E. faecalis (16) Laboratory No. 60) was 246 (96-516). It also gave an MIC (E. coli [2]; E. coli ATCC 25922, inoculum 1.3 CFU 10^5/ml) of 0.016 µg/mL (≈ 0.0411 µM), an MIC (E. coli [2]; E. coli Laboratory No. 523, inoculum 3.4 CFU 10^5/ml) of 0.06 µg/mL (≈ 0.154 µM) and an MIC (E. coli [2]; Escherichia coli, ATCC25922, E. coli ATCC 25922 (reference strain), read-out: MIC) of 0.016 µg/mL (≈ 0.0411 µM). For the same molecule, the MBC (E. coli [2]; Escherichia coli, ATCC25922, E. coli ATCC 25922, inoculum 1.3 CFU 10^5/ml) was 0.016 µg/mL (≈ 0.0411 µM), the MBC (E. coli [2]; Escherichia coli, E. coli Laboratory No. 523, inoculum 3.4 CFU 10^5/ml) was 0.06 µg/mL (≈ 0.154 µM) and the MIC (E. coli [2]; Escherichia coli, E. coli clinical isolate (0.06/0.5), read-out: MIC) was 0.06 µg/mL (≈ 0.154 µM). For the same molecule, the MIC (K. pneumoniae; K. pneumoniae Laboratory No. 595, inoculum 3.7 CFU 10^5/ml) was 0.03 µg/mL (≈ 0.077 µM), the MBC (K. pneumoniae; Klebsiella pneumoniae, K. pneumoniae Laboratory No. 595, inoculum 3.7 CFU 10^5/ml) was 0.03 µg/mL (≈ 0.077 µM) and the MIC (K. pneumoniae; Klebsiella pneumoniae, K. pneumoniae clinical isolate, read-out: MIC) was 0.03 µg/mL (≈ 0.077 µM). For the same molecule, the MIC (P. aeruginosa; P. aeruginosa Laboratory No. 568, inoculum 5.6 CFU 10^5/ml) was 1 µg/mL (≈ 2.57 µM), the MBC (P. aeruginosa; Pseudomonas aeruginosa, P. aeruginosa Laboratory No. 568, inoculum 5.6 CFU 10^5/ml) was 2 µg/mL (≈ 5.14 µM) and the MIC (P. aeruginosa; Pseudomonas aeruginosa, P. aeruginosa clinical isolate, read-out: MIC) was 1 µg/mL (≈ 2.57 µM). It also gave an MBC (E. faecalis [3]; [5]) of 2 µg/mL (≈ 5.14 µM), an MIC (E. faecalis [3]; [5]) of 0.5 µg/mL (≈ 1.28 µM) and an MBC (E. faecalis [3]; [6]) of 0.06 µg/mL (≈ 0.154 µM). The MIC (E. faecalis [3]; [6]) was 0.06 µg/mL (≈ 0.154 µM), the MIC (E. faecalis [3]; E. faecalis isolate (0.06/2)) was 0.06 µg/mL (≈ 0.154 µM) and the MIC (E. faecalis [3]; E. faecalis isolate (0.5/32)) was 0.5 µg/mL (≈ 1.28 µM). For the same molecule, the MIC (P. mirabilis; P. mirabilis Laboratory No. 414, inoculum 2.5 CFU 10^5/ml) was 0.125 µg/mL (≈ 0.321 µM), the MIC (P. mirabilis; Proteus mirabilis) was 0.125 µg/mL (≈ 0.321 µM) and the MBC (P. mirabilis; Proteus mirabilis, P. mirabilis Laboratory No. 414, inoculum 2.5 CFU 10^5/ml) was 0.25 µg/mL (≈ 0.642 µM). For the same molecule, the MIC90 (E. coli [4]; E. coli (13 strains), quinolone-resistant) was 0.25 µg/mL (≈ 0.642 µM), the MIC50 (E. coli [4]; E. coli (13 strains), quinolone-resistant, read-out: MIC50) was 0.031 µg/mL (≈ 0.0796 µM) and the MIC (E. coli [4]; E. coli KU1029, mutant type SP (spontaneous mutant in the DNA gyrase)) was 0.031 µg/mL (≈ 0.0796 µM). The MIC (E. coli [4]; E. coli KU1030, mutant type SP) was 0.031 µg/mL (≈ 0.0796 µM), the MIC (E. coli [4]; E. coli KU1031, mutant type SP) was 0.031 µg/mL (≈ 0.0796 µM) and the MIC (E. coli [4]; E. coli KU1032, mutant type SP) was 0.125 µg/mL (≈ 0.321 µM). It also gave an MIC (E. coli [4]; E. coli KU1033, mutant type SP) of 0.016 µg/mL (≈ 0.0411 µM), an MIC (E. coli [4]; E. coli KU1034, mutant type GA (DNA gyrase A)) of 0.25 µg/mL (≈ 0.642 µM) and an MIC (E. coli [4]; E. coli KU1035, mutant type GA (DNA gyrase A)) of 0.25 µg/mL (≈ 0.642 µM). It also gave an MIC (E. coli [4]; E. coli KU1036, mutant type GB (DNA gyrase B)) of 0.031 µg/mL (≈ 0.0796 µM), an MIC (E. coli [4]; E. coli KU1038, mutant type SP) of 0.031 µg/mL (≈ 0.0796 µM) and an MIC (E. coli [4]; E. coli KU1039, mutant type SP) of 0.125 µg/mL (≈ 0.321 µM). For the same molecule, the MIC (E. coli [4]; E. coli KU1040, mutant type SP) was at most 0.008 µg/mL, the MIC (E. coli [4]; E. coli KU1041, mutant type SP) was 0.25 µg/mL (≈ 0.642 µM) and the MIC (E. coli [4]; E. coli KU1042, mutant type SP) was 0.063 µg/mL (≈ 0.162 µM). The MIC50 (E. coli [4]; E. coli mutated in the DNA gyrase) was 0.032 µg/mL (≈ 0.0822 µM), the MIC50 (Proteus vulgaris; Proteus vulgaris) was 0.125 µg/mL (≈ 0.321 µM) and the “MIC Range” value (Proteus vulgaris; Proteus vulgaris (n=25)) was 0.063 to 1 µg/mL. For the same molecule, the MIC90 (Proteus vulgaris; Proteus vulgaris (n=25), read-out: MIC90) was 0.25 µg/mL (≈ 0.642 µM), the “MIC Range” value (Enterobacter aerogenes) was 0.016 to 0.25 µg/mL and the MIC50 (Enterobacter aerogenes; Klebsiella aerogenes) was 0.032 µg/mL (≈ 0.0822 µM). The MIC90 (Enterobacter aerogenes; Klebsiella aerogenes) was 0.063 µg/mL (≈ 0.162 µM).
